# According to PMC8287724, “Reducing Auditory Nerve Excitability by Acute Antagonism of Ca^2+-Permeable AMPA Receptors” (Frontiers in Synaptic Neuroscience, 2021):
# Where “and” joins values, the source holds several entries; their conditions need not be identical. Equal values may be shown once.
# Key:
# GluA2-containing AMPARs = tested on: GluA2-containing AMPARs; parameters: method as in Magazanik et al., 1997; Buldakova et al., 1999; conditions: ref Magazanik et al., 1997; Buldakova et al., 1999; cited from earlier work
# [1] = tested on: distortion product otoacoustic emissions (DPOAE); assay: Distortion product otoacoustic emissions after systemic delivery; assay type: in vivo, guinea pig; conditions: IP 13.5 mg/kg
# Protocol: As described for local delivery, cochlear output was measured similarly for systemic delivery of IEM-1460 and IEM-1925. Complete details have been previously published (Salt et al., [2013]). Briefly, acoustic tone bursts were applied in a closed sound system. The plastic extension tube of the acoustic assembly (Etymotic Research, ER-10 C) was coupled to the end of the hollow ear bar with the tube tip positioned ~1.5 mm from the tympanic membrane. Stimulus generation and data collection were performed with Tucker Davis System 3 hardware controlled by a custom written program (Microsoft Visual Basic). Stimulus waveforms were routed through a programmable Tucker Davis PA5 attenuator and HB7 headphone amplifier. Stimuli were calibrated from 0.125 to 26 kHz in 1/4 octave steps. A CAP audiogram was obtained at the beginning and end of the experiment. Up to 60 min of baseline audiometric data were obtained prior to drug delivery. Data with baseline changes >20% were excluded. A 13-level tone probe series, at selected frequencies, was repeated at 2-min intervals. Distortion product otoacoustic emissions (DPOAEs) were measured using an ER10C probe system. The two primary tone frequencies were set at 6 kHz (f1) and 7.4 kHz (f2), for a f2/f1-ratio of 1.23, with levels of 65 dB SPL (L1) and 55 dB SPL (L2). […]
# [2] = tested on: auditory nerve compound action potential (CAP); assay: Auditory nerve CAP during intracochlear (apical) perfusion; assay type: in vivo, guinea pig
# Protocol: This study utilized 21 NIH-strain, pigmented guinea pigs weighing from 400 to 650 g, in accordance with policies and protocols approved by the Institutional Animal Care and Use Committee at Washington University in St. Louis (20180133, 20190035). Animals were anesthetized with intraperitoneal (IP) injection of 100 mg/kg sodium thiobutabarbital (Inactin, Sigma, St. Louis, MO). Once anesthetized, the fur from the head and neck was shaved and a tracheal cannula was placed. The animal was maintained on 0.8–1.2% isoflurane in oxygen using a mechanical ventilator. The ventilator's tidal volume was adjusted to maintain a 5% end-tidal CO2 which was monitored with a CapnoTrue AMP (Bluepoint Medical, Zevenaar, The Netherlands). Body temperature was maintained at 38 degrees C with a DC-powered heating blanket-rectal thermometer (Model 50-7079; Harvard Apparatus). Heart rate and oxygen saturation were monitored with a pulse oximeter (Surgivet, Waukesha, WI). The auditory bulla was exposed ventrally for placement of recording electrodes. The jugular vein was cannulated to maintain hydration with 0.5 mL per hour of Lactated Ringer's solution. To prevent middle ear muscle contractions, vecuronium bromide (0.2 mg/kg) was administered immediately prior to data collection and every 1.5 h thereafter.
# The head was stabilized in a head-holder with a solid ear bar on the left side and hollow ear bar on the right side, a bite bar, and a snout clamp. Sound calibration, stimulus generation, and recording methods have been detailed previously (Lichtenhan et al., [2016a], [2017]). Briefly, cochlear function measurements were made using MATLAB software (The MathWorks, Natick, MA) and the software utility Playrec. The stimulus was first generated in MATLAB, digitized at 96 kHz, presented to a 24-bit sound card (RME: Fireface802; Sweetwater, Fort Wayne, IN), and then routed to an acoustic probe system (ER-10X; Etymotic Research, Fort Wayne, IN). The ER-10X microphone was calibrated using a reference microphone (1/8” GRAS type 40P) and a custom-made coupling system was used for setting stimulus levels. Sound was presented through the hollow ear bar on the right side via the ER-10X microphone probe.
# Cochlear output was recorded as a field potential between a Ag/AgCl ball electrode in the cochlear round window niche and a platinum needle electrode at the vertex of the cranium. Responses to 20 tone bursts (10 with reversed polarity) were averaged for each CAP measurement at a given frequency and level. The CAP audiogram was measured (1–22 kHz, 1/4 octave steps) at the beginning and end of the experiment to determine CAP threshold as a function of tone-burst frequency. Prior to and immediately after IEM-1460 perfusions via the apical cochlear fenestration (see below), CAPs were evoked by tone bursts at selected frequencies and levels. Measurements were repeated at 1- to 2-min intervals to monitor cochlear output and to ensure response stationarity for at least 25 min prior to drug delivery. Data with baseline changes >20% were excluded. The round window niche was monitored for accumulation of fluid.
# At each probe frequency, CAP peak-to-peak amplitudes were measured from the first trough (N1) to the first peak (P1). Latencies were measured to the trough of N1. Cochlear output was compared before and after intraperitoneal drug delivery. The data were tested for normality using a Kolmogorov-Smirnov test. For CAP amplitude and latency, significance was assessed with the Mann-Whitney U-test. The Wilcoxon signed rank test was used to assess CAP threshold. Friedman test was used to compare concentrations of drug between perilymph and CSF. A p < 0.05 was considered statistically significant. A Bonferroni correction was used when performing multiple comparison testing. All statistical tests were performed with IBM SPSS Statistics Version 27 (SPSS Inc., Chicago, IL, United States). […]
# GluA2-lacking AMPARs = tested on: GluA2-lacking AMPARs; parameters: method as in Magazanik et al., 1997; Buldakova et al., 1999; conditions: ref Magazanik et al., 1997; Buldakova et al., 1999; read-out: IC50 on cells expressing GluA2-lacking AMPARs; cited from earlier work
# [3] = tested on: cochlear afferent synapses; parameters: method as in Hu et al., 2020; conditions: mouse; ~2.5 days of sustained intracochlear delivery; synaptopathic noise ref Hu et al., 2020; cited from earlier work
# [4] = 100 μM, across tone levels and frequencies
compound,measurement,setting,value
C[N+](C)(C)CCCCCNCC12CC3CC(CC(C3)C1)C2 [IEM-1460],IC50,GluA2-containing AMPARs,500 to 1100 µM
same,effect on distortion product otoacoustic emissions (DPOAEs),[1],unaffected
same,reduction of tone-evoked CAP amplitude,[2]; 10 μM in perfusion,~ 25%
same,reduction of CAP amplitude,"[2]; 100 μM in perfusion pipette, 80 dB SPL tones at 2 and 16 kHz, average",~ 55%
same,reduction of CAP amplitude relative to pre-drug baseline,"[2]; 100 μM, 2 kHz tones",~ 60%
same,reduction of CAP amplitude relative to pre-drug baseline,"[2]; 100 μM, 16 kHz tones",~ 30%
same,additional CAP delay,[2]; [4],~ 0.3 ms
same,increase of CAP latency relative to pre-drug,[2]; [4],~ 10% and 10%
same,change in CAP threshold,"[2]; 100 μM, frequencies from 1 to 20 kHz",< 5 dB SPL
same,IC50,"[2]; Cavia porcellus, intracochlear perfusion 0.1 to 4,000 μM, 80 dB SPL probe, averaged for 2 and 16 kHz tones, Boltzmann fit, read-out: IC50, concentration for a 50% CAP reduction",~73 µM
same,reduction of CAP amplitude,"[2]; acute intracochlear delivery, all tone levels and frequencies (abstract, concentration not stated)",> 50%
same,IC50,GluA2-lacking AMPARs,1 to 3 µM
same,effect on noise-induced synapse loss and ABR wave-I amplitude,[3],prevented synapse loss and loss of wave-I amplitude
